# From patent US5750530A, “Pharmaceutical diketopiperazine compounds” (Xenova Limited, priority 1994, dated 1998)
# Counter-ions that a name gives are not always drawn.
# Target: PAI-1 (Homo sapiens, UniProt P05121)
# Assay: biochemical
# Format: biochemical
# Details: for IC50: PAI chromogenic substrate assay
# Description: The present compounds have been tested in a PAI functional assay. In this assay, a compound is incubated with PAI-1 prior to addition to the tPA assay system. Inhibition of PAI-1 results in the production of plasmin from plasminogen. In turn, plasmin cleaves the chromogenic substrate S2251 (Kabi Vitrum) producing pNA (p-nitroaniline) which is detected spectrophotometrically at 405 nm (K. Nilsson et al, Fibrinolysis (1987) 1, 163-168).
# The present compounds were tested in a PAI chromogenic substrate assay. In the assay (K. Nilsson, Fibrinolysis (1987) 1, 163-168) each compound was incubated with PAI-1 prior to addition to the tPA assay system. […] In turn, the plasmin cleaved the chromogenic substrate S2251 (Kabi-Vitrum) producing pNA (p-nitroaniline) which was detected spectrophotometrically at 405 nm.
# The degrees of inhibition observed in the chromogenic substrate assay at various concentrations, or the IC50 values, for each compound are presented in Table 1.
# Sequence of PAI-1 (P05121 24-402): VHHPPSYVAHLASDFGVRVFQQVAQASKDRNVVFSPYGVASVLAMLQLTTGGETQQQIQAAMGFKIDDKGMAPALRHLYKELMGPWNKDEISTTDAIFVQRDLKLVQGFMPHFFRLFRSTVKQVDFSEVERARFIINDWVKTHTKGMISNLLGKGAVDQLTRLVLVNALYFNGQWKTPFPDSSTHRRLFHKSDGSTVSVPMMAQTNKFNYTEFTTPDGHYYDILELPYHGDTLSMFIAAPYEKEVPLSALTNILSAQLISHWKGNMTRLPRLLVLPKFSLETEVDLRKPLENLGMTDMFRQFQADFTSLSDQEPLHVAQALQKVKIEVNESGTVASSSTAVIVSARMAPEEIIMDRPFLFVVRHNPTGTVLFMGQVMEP
% Inhibition (5 μm),% Inhibition (20 μm),IC50,Compound
20%,36%,,"CN(C)CCSc1ccc(/C=c2\[nH]c(=O)/c(=C/c3ccc(C(C)(C)C)cc3)[nH]c2=O)cc1 [Compound 5440.HCl, (3Z,6Z)-3-(4-(2-Dimethylaminoethylthio)benzylidene)-6-(4-tert-butylbenzylidene)-2,5-piperazinedione]"
0%,0%,,"CC(C)/C=c1\[nH]c(=O)/c(=C/c2ccc(SCCN(C)C)s2)[nH]c1=O [Compound 5448, (3Z,6Z)-3-(5-(2-Dimethylaminoethylthio)-2-thienyl)methylene-6-(2-methylpropylidene)-2,5-piperazinedione]"
47%,75%,5.5 µM,"CN(C)CCSc1ccc(/C=c2\[nH]c(=O)/c(=C/C3CCCCC3)[nH]c2=O)s1 [Compound 5454, (3Z,6Z)-6-Cyclohexylmethylene-3-(5-(2-dimethylaminoethylthio)-2-thienyl)methylene-2,5-piperazinedione]"
25%,69%,5.3 µM,"CN(C)CCSc1ccc(/C=c2\[nH]c(=O)/c(=C/C3CCCCC3)[nH]c2=O)s1 [Compound 5454.HCl, (3Z,6Z)-6-Cyclohexylmethylene-3-(5-(2-dimethylaminoethylthio)-2-thienyl)methylene-2,5-piperazinedione]"
30%,59%,6.5 µM,"CN(C)CCSc1ccc(/C=c2\[nH]c(=O)/c(=C/CC3CCCC(C)(C)C3)[nH]c2=O)s1 (centres unmarked) [Compound 5455, (3Z,6Z)-3-(5-(2-Dimethylaminoethylthio)-2-thienyl)methylene-6-(2-(3,3-dimethylcyclohexyl)ethylidene)-2,5-piperazinedione]"
34%,83%,12.2 µM,"Cc1ccc(/C=c2\[nH]c(=O)/c(=C/c3ccc(SCCN(C)C)s3)[nH]c2=O)cc1 [Compound 5460, (3Z,6Z)-3-(5-(2-Dimethylaminoethylthio)-2-thienyl)methylene-6-(4-methylbenzylidene)-2,5-piperazinedione]"
31%,78%,12.6 µM,"Cc1ccc(/C=c2\[nH]c(=O)/c(=C/c3ccc(SCCN(C)C)s3)[nH]c2=O)cc1 [Compound 5460.HCl, (3Z,6Z)-3-(5-(2-Dimethylaminoethylthio)-2-thienyl)methylene-6-(4-methylbenzylidene)-2,5-piperazinedione]"
1%,44%,,"CN(C)CCSc1ccc(/C=c2\[nH]c(=O)/c(=C/c3ccc([N+](=O)[O-])cc3)[nH]c2=O)cc1 [Compound 5461, (3Z,6Z)-3-(4-(2-Dimethylaminoethylthio)benzylidene)-6-(4-nitrobenzylidene)-2,5-piperazinedione]"
10%,56%,,"CN(C)CCSc1ccc(/C=c2\[nH]c(=O)/c(=C/c3ccc([N+](=O)[O-])cc3)[nH]c2=O)cc1 [Compound 5461.HCl, (3Z,6Z)-3-(4-(2-Dimethylaminoethylthio)benzylidene)-6-(4-nitrobenzylidene)-2,5-piperazinedione]"
41%,43%,,"CN(C)CCSc1ccc(/C=c2\[nH]c(=O)/c(=C/c3ccc(C#N)cc3)[nH]c2=O)cc1 [Compound 5462, (3Z,6Z)-3-(4-Cyanobenzylidene)-6-(4-(2-dimethylaminoethylthio)benzylidene)-2,5-piperazinedione]"
45%,41%,,"CN(C)CCSc1ccc(/C=c2\[nH]c(=O)/c(=C/c3ccc(C#N)cc3)[nH]c2=O)cc1 [Compound 5462.HCl, (3Z,6Z)-3-(4-Cyanobenzylidene)-6-(4-(2-dimethylaminoethylthio)benzylidene)-2,5-piperazinedione]"
76%,78%,4 µM,"Cc1ccc(/C=c2\[nH]c(=O)/c(=C/c3ccc(SCCN(C)C)cc3)[nH]c2=O)cc1 [Compound 5463, (3Z,6Z)-3-(4-(2-Dimethylaminoethylthio)benzylidene)-6-(4-methylbenzylidene)-2,5-piperazinedione]"
78%,80%,3.1 µM,"Cc1ccc(/C=c2\[nH]c(=O)/c(=C/c3ccc(SCCN(C)C)cc3)[nH]c2=O)cc1 [Compound 5463.HCl, (3Z,6Z)-3-(4-(2-Dimethylaminoethylthio)benzylidene)-6-(4-methylbenzylidene)-2,5-piperazinedione]"
19%,58%,10.5 µM,"COc1ccc(/C=c2\[nH]c(=O)/c(=C/c3ccc(SCCN(C)C)s3)[nH]c2=O)cc1 [Compound 5464, (3Z,6Z)-3-(5-(2-Dimethylaminoethylthio)-2-thienyl)methylene-6-(4-methoxybenzylidene)-2,5-piperazinedione]"
17%,61%,11.2 µM,"COc1ccc(/C=c2\[nH]c(=O)/c(=C/c3ccc(SCCN(C)C)s3)[nH]c2=O)cc1 [Compound 5464.HCl, (3Z,6Z)-3-(5-(2-Dimethylaminoethylthio)-2-thienyl)methylene-6-(4-methoxybenzylidene)-2,5-piperazinedione]"
32%,73%,3.6 µM,"CN(C)CCSc1ccc(/C=c2\[nH]c(=O)/c(=C/c3ccc(Cl)c(Cl)c3)[nH]c2=O)cc1 [Compound 5465, (3Z,6Z)-3-(3,4-Dichlorobenzylidene)-6-(4-(2-dimethylaminoethylthio)benzylidene)-2,5-piperazinedione]"
42%,76%,2.6 µM,"CN(C)CCSc1ccc(/C=c2\[nH]c(=O)/c(=C/c3ccc(Cl)c(Cl)c3)[nH]c2=O)cc1 [Compound 5465.HCl, (3Z,6Z)-3-(3,4-Dichlorobenzylidene)-6-(4-(2-dimethylaminoethylthio)benzylidene)-2,5-piperazinedione]"
1%,0%,,"CN(C)CCSc1ccc(/C=c2\[nH]c(=O)/c(=C/c3cccnc3)[nH]c2=O)s1 [Compound 5470, (3Z,6Z)-6-(5-(2-Dimethylaminoethylthio)-2-thienyl)methylene-3-(3-pyridylmethylene)-2,5-piperazinedione]"
1%,1%,,"CN(C)CCSc1ccc(/C=c2\[nH]c(=O)/c(=C/c3cccnc3)[nH]c2=O)s1 [Compound 5470.HCl, (3Z,6Z)-6-(5-(2-Dimethylaminoethylthio)-2-thienyl)methylene-3-(3-pyridylmethylene)-2,5-piperazinedione]"
0%,1%,,"CN(C)CCSc1ccc(/C=c2\[nH]c(=O)/c(=C/c3ccccn3)[nH]c2=O)s1 [Compound 5471, (3Z,6Z)-6-(5-(2-Dimethylaminoethylthio)-2-thienyl)methylene-3-(2-pyridylmethylene)-2,5-piperazinedione]"
1%,2%,,"CN(C)CCSc1ccc(/C=c2\[nH]c(=O)/c(=C/c3ccccn3)[nH]c2=O)s1 [Compound 5471.HCl, (3Z,6Z)-6-(5-(2-Dimethylaminoethylthio)-2-thienyl)methylene-3-(2-pyridylmethylene)-2,5-piperazinedione]"
0%,22%,,"CN(C)CCSc1ccc(/C=c2\[nH]c(=O)/c(=C/c3ccncc3)[nH]c2=O)s1 [Compound 5472, (3Z,6Z)-6-(5-(2-Dimethylaminoethylthio)-2-thienyl)methylene-3-(4-pyridylmethylene)-2,5-piperazinedione]"
25%,61%,13.8 µM,"CN(C)CCSc1ccc(/C=c2\[nH]c(=O)/c(=C/c3cn(C)c4ccccc34)[nH]c2=O)s1 [Compound 5473, (3Z,6Z)-6-(5-(2-Dimethylaminoethylthio)-2-thienyl)methylene-3-(1-methyl-3-indolyl)methylene-2,5-piperazinedione]"
10%,54%,20 µM,"CN(C)CCSc1ccc(/C=c2\[nH]c(=O)/c(=C/c3cn(C)c4ccccc34)[nH]c2=O)s1 [Compound 5473.HCl, (3Z,6Z)-6-(5-(2-Dimethylaminoethylthio)-2-thienyl)methylene-3-(1-methyl-3-indolyl)methylene-2,5-piperazinedione]"
21%,38%,,"CN(C)CCSc1ccc(/C=c2\[nH]c(=O)/c(=C/c3cccc(C#N)c3)[nH]c2=O)cc1 [Compound 5476, (3Z,6Z)-3-(3-Cyanobenzylidene)-6-(4-(2-dimethylaminoethylthio)benzylidene)-2,5-piperazinedione]"
11%,34%,,"CN(C)CCSc1ccc(/C=c2\[nH]c(=O)/c(=C/c3cccc(C#N)c3)[nH]c2=O)cc1 [Compound 5476.HCl, (3Z,6Z)-3-(3-Cyanobenzylidene)-6-(4-(2-dimethylaminoethylthio)benzylidene)-2,5-piperazinedione]"
10%,59%,20 µM,"COC(=O)c1ccc(/C=c2\[nH]c(=O)/c(=C/c3ccc(SCCN(C)C)s3)[nH]c2=O)cc1 [Compound 5477, (3Z,6Z)-3-(5-(2-Dimethylaminoethylthio)-2-thienyl)methylene-6-(4-methoxycarbonylbenzylidene)-2,5-piperazinedione]"
